{
  "source": "patent US7820405B2",
  "about": "“Specific bacterial inclusions in bone marrow cells indicate systematic lupus erthematosus, and treatment for lupus” (Sphingomanas Research Partners, L.P., priority 2005, dated 2010)",
  "tested_on": "intra-erythrocytic bacterial structures (Mycoplasma haemosapiens)",
  "format": "in vivo, human",
  "settings": "Patient A, during doxycycline 100 mg twice daily; declined from about 16% before therapy",
  "data": [
    {"smiles": "C[C@H]1c2cccc(O)c2C(=O)C2=C(O)[C@]3(O)C(=O)C(C(N)=O)=C(O)[C@@H](N(C)C)[C@@H]3[C@@H](O)[C@@H]21", "note": "[doxycycline]", "values": [
      {"measurement": "percentage of parasitized erythrocytes", "result": "approximately 8%"}
    ]}
  ]
}
